# Patent US20080275036A1, “Prevention and treatment of cardiac conditions” (APT Pharmaceuticals, Inc., priority 2007, published 2008)
# “Also recorded” adds a separate entry of the source. Read-outs that look alike come from different tables or passages of the source.
# Legend:
# [1] = tested on: isolated, perfused guinea pig heart; assay: Perfusion of doxorubicin and dexrazoxane in the isolated, perfused guinea pig heart (Langendorff); details: for % change in MAP duration / % change in QTc / Cardiac rate / Cor flow / LV dp/dt max / LV dpdt (relax) / LV peak systolic pressure / LVEDP / MAP Duration / QTcF: 30 min of perfusion
# Experimental: Perfusion studies of doxorubicin and dexrazoxane in the isolated, perfused guinea pig heart were performed similarly as above. The following parameters were recorded continuously: electrocardiogram (ECG), monophasic action potentials (MAP), perfusion pressure, left ventricular pressure and coronary flow. These effects could be related to some modifications of cardiac electrophysiology (changes in PR, QRS, QT and RR intervals, proarrhythmic effects, Torsade de pointes . . . ), of coronary resistance and/or of cardiac contraction or inotropism (contractility or relaxation troubles).
# Stock solutions (10^−2M, 3×10^−2M) in H20 for each drug were prepared each day of the experiment and a dilution (1/1000) done in the perfusion buffer in order to get the appropriate concentrations:
# The buffer used in the experiment was KREBS-[…] buffer (Sigma K-3753) to which was added sodium bicarbonate (Sigma S5761) 25 mM and calcium chloride dihydrate (Sigma C8106) 1.8 mM.
# The ECG (2 electrodes: on the apex and closed to the right auricular) and the MAP (electrode on the epicardium) were recorded. PR, QRS, QT and RR were measured and QTc (Fridericia; QTc=QT/(RR) ⅓ in ms) was calculated.
# The coronary flow (mL/min) is indicated by the perfusion pump. In this model, the perfusion pressure was constant.
# Diastolic pressure (mmHg), systolic pressure (mmHg), differential pressure (syst-diast) (mmHg), mean pressure (mmHg), dP/dt min (mmHg/sec) dP/dt max (mmHg/sec) and cardiac frequency (beat per minute: BPM) were measured. A modification of the inotropism can be a problem of cardiac contractility (if modified systolic pressure and dP/dt max) or relaxation (if modified diastolic pressure and dP/dt min). From the left ventricular pressure, the following were calculated: heart rate (frequency of cardiac contractions), dP/dt min and dP/dt max. An acquisition unit MP150WSW with Acknowledge software (Biopac, USA) was used to continuously record all the signals (perfusion pressure, coronary flow, left ventricular pressure, ECG and MAP) through a PC computer. In each group (n=4 hearts), increasing concentrations of compound were infused according to the following design:
# For each group, the data are expressed as mean ±S.E.M, % of variation compared to D0 and delta variation from D0. PR, QRS, QT and RR are measured on the same period but on a signal which results from 5 cycles.
# On all the curves, the mean value is measured on 30 seconds in the last minute of perfusion for the following parameters: […]
# [2] = tested on: isolated guinea pig myocytes; assay: Calcium transients in isolated guinea pig myocytes; type: cell-based; details: for calcium transients (effect in words): over the tested concentrations
# Experimental: Calcium transients were measured during activation in isolated guinea pig myocytes. […] This increase in calcium transient without an action potential increase indicates an effect on calcium cycling proteins.
# [3] = tested on: isolated guinea pig myocytes; assay: Action potential properties in isolated guinea pig myocytes; type: cell-based; details: for action potential duration (effect in words): over the tested concentrations
# [4] = tested on: single guinea-pig ventricular myocytes; assay: Action potential recording in single guinea-pig ventricular myocytes; type: cell-based; details: for action potential duration (effect in words): superfused 10 to 30 minutes
# Experimental: Myocytes were isolated after perfusion of the heart with a physiological salt solution containing reduced calcium and 0.8 mg/mL of collagenase Type 1 (Worthington Biochemicals).
# Action potentials were recorded from single guinea-pig ventricular myocytes using the standard control conditions and criteria as adopted by CCTT Ltd. (see http://www.cctt.ltd.uk/ap1.htm). Briefly, action potentials were recorded using conventional glass microelectrodes filled with 1 M KMeSO4 and 10 mM KCl. Electrode resistances were in the range of 40 to 60 MΩ. An Axoclamp 2B (Axon Instruments Inc) amplifier was used for electrical recording. Action potentials were continuously stimulated by application of a brief (1-2 ms) current stimuli applied via the intracellular microelectrode in ‘bridge’ mode. Following penetration of the cell with the microelectrode, a stabilisation period of at least 5 min was allowed before recordings were started. The frequency of stimulation was 1 Hz. Recorded signals were digitised at a sampling frequency of 5 kHz and stored for subsequent off line analysis. Action potential signals were continuously monitored online using an oscilloscope (Tektronix digital storage oscilloscope) to check for development of effects of dexrazoxane. All recordings are made at 36±1° C.
# The stability of several parameters of the action potential profile (resting potential, action potential amplitude and action potential duration) was ensured before recordings were commenced. Resting potential was measured over a 5-10 ms period before the stimulus artefact and values for the resting potential falling between −75 to −85 mV were taken as normal. Action potential amplitude was measured following the stimulus artefact and values falling between 110 to 130 mV were taken as normal.
# All data are presented as mean ±SEM. The effect of dexrazoxane on action potential characteristics was assessed using Student's t-test (MicroSoft Excel) and P<0.05 was taken to indicate statistical significance.
# Action potential duration was measured from the peak amplitude of the action potential to 90% repolarisation level (APD90), and values for APD90 falling between 150 to 300 ms were taken as normal. Parameters measured in this study were action potential duration at 40, and 90% repolarisation levels (APD40 and APD90) using Clampfit 9.0.
# For each cell, APD40 and APD90 values were calculated in the absence (control) and presence of a drug. As an index of ‘Triangulation’ APD90-APD40, (APD90-40 ms) in the absence (APD90-40 control) and presence of dexrazoxane (APD90-40 drug) were calculated. This was normalised to the starting (control) APD90 to express APD90-40 duration as a % of control APD90. Calculations were made for each cell individually; the values for each drug concentration were then averaged.
# [5] = tested on: Langendorff heart preparations; assay: Heart rate variability after total flow occlusion in stable Langendorff heart preparations; details: 10 μM, 30 min
# [6] = cited from earlier work; for solubility in polar solvents: ethanol and methanol
# [7] = cited from earlier work
# [8] = tested on: single ventricular myocytes; assay: Unloaded cell shortening (UCS) of single ventricular myocytes; details: 10 μM
# [9] = doxorubicin perfusion, 30 minute time point
smiles,measurement,setting,value
COc1cccc2c1C(=O)c1c(O)c3c(c(O)c1C2=O)C[C@@](O)(C(=O)CO)C[C@@H]3O[C@H]1C[C@H](N)[C@H](O)[C@H](C)O1 [Doxorubicin],% change in MAP duration,[1]; DOX 3 * 10^−5 mM,13.3%
same,% change in QTc,[1]; DOX 3 * 10^−5 mM,11.9 % change
same,Cardiac rate,[1]; DOX 3 * 10^−5 mM,184 Beats/min
same,Cor flow,[1]; DOX 3 * 10^−5 mM,14.4 mL/min
same,LV dp/dt max,[1]; DOX 3 * 10^−5 mM,887 mmHg sec^−1
same,LV dpdt (relax),[1]; DOX 3 * 10^−5 mM,−922 mmHg sec^−1
same,LV peak systolic pressure,[1]; DOX 3 * 10^−5 mM,93 mmHg
same,LVEDP,[1]; DOX 3 * 10^−5 mM,14 mmHg
same,MAP Duration,[1]; DOX 3 * 10^−5 mM,162 ms
same,QTcF,[1]; DOX 3 * 10^−5 mM,272 ms
same,% change in MAP duration,[1]; DOX 10^−5 mM,2.2%
same,% change in QTc,[1]; DOX 10^−5 mM,1.6 % change
same,Cardiac rate,[1]; DOX 10^−5 mM,217 Beats/min
same,Cor flow,[1]; DOX 10^−5 mM,13.4 mL/min
same,LV dp/dt max,[1]; DOX 10^−5 mM,1277 mmHg sec^−1
same,LV dpdt (relax),[1]; DOX 10^−5 mM,−1173 mmHg sec^−1
same,LV peak systolic pressure,[1]; DOX 10^−5 mM,97 mmHg
same,LVEDP,[1]; DOX 10^−5 mM,7 mmHg
same,MAP Duration,[1]; DOX 10^−5 mM,142 ms
same,QTcF,[1]; DOX 10^−5 mM,247 ms
same,LVEDP (effect in words),[1]; [9],marked increase
same,QTcF (effect in words),[1]; [9],increased
same,"Ca^2+ transients, Peak amplitude (ΔF/F0)",[2]; 30 μM,3.0 ± 0.7 ΔF/F0
same,"Ca^2+ transients, Peak amplitude (ΔF/F0)",[2]; 100 μM,3.1 ± 0.5 ΔF/F0
same,"Ca^2+ transients, Peak amplitude (ΔF/F0)",[2]; 300 μM,1.6 ± 0.3 ΔF/F0
same,calcium transients (effect in words),[2],dose related decrease
same,APD50,[3]; 30 μM,553 ± 29 ms
same,APD90,[3]; 30 μM,626 ± 28 ms
same,"Action potentials, Peak amplitude",[3]; 30 μM,120 ± 3 mV
same,"Action potentials, Resting potential",[3]; 30 μM,−70 ± 3 mV
same,APD50,[3]; 100 μM,646 ± 26 ms
same,"Action potentials, Peak amplitude",[3]; 100 μM,119 ± 2 mV
same,"Action potentials, Resting potential",[3]; 100 μM,−68 ± 3 mV
same,APD50,[3]; 300 μM,536 ± 48 ms
same,APD90,[3]; 300 μM,611 ± 48 ms
same,"Action potentials, Peak amplitude",[3]; 300 μM,122 ± 4 mV
same,"Action potentials, Resting potential",[3]; 300 μM,−69 ± 2 mV
same,action potential duration (effect in words),[3],profound prolongation
"C[C@@H](CN1CC(=O)NC(=O)C1)N1CC(=O)NC(=O)C1 [Dexrazoxane, (S)-4,4′-(1-methyl-1,2-ethanediyl)bis-2,6-piperazinedione]",decrease in APD40,"[4]; 10 μM in superfusion solution, n=3, P<0.005",18±4%
same,APD90-40 duration (index of triangulation),[4]; 10 μM superfusion,did not significantly alter
same,action potential duration (APD90),"[4]; 10 μM, 27 minutes, control 212±9 ms",168 ± 12 ms
same,shortening of APD90,"[4]; 10 μM, perfusion 27 minutes, n=4, P<0.005",18±3%
same,action potential duration (effect in words),[4]; 10 μM,shortened action potential duration
same,action potential duration (effect in words),"[4]; 10 μM, listed as dexrazoxane",shortened action potential duration; also recorded: caused shortening of action potential duration
same,APD40,"[4]; 10 μM, control 175±8 ms",136 ± 15 ms
same,coefficient of variation (heart rate variability) at reperfusion,"[5]; control 2.9±0.2, n=3, P=ns",3.3±1.1
same,increase of coefficient of variation (heart rate variability) during reperfusion,"[5]; reperfusion after 15 min total flow ischemia, n=3",77%
same,% change in MAP duration,[1]; DOX 3 * 10^−5 mM,0.0%
same,% change in QTc,[1]; DOX 3 * 10^−5 mM,−1.7 % change
same,Cardiac rate,[1]; DOX 3 * 10^−5 mM,200 Beats/min
same,Cor flow,[1]; DOX 3 * 10^−5 mM,14.6 mL/min
same,LV dp/dt max,[1]; DOX 3 * 10^−5 mM,1041 mmHg sec^−1
same,LV dpdt (relax),[1]; DOX 3 * 10^−5 mM,−1022 mmHg sec^−1
same,LV peak systolic pressure,[1]; DOX 3 * 10^−5 mM,82 mmHg
same,LVEDP,[1]; DOX 3 * 10^−5 mM,5 mmHg
same,MAP Duration,[1]; DOX 3 * 10^−5 mM,143 ms
same,QTcF,[1]; DOX 3 * 10^−5 mM,237 ms
same,% change in MAP duration,[1]; DOX 10^−5 mM,0%
same,% change in QTc,[1]; DOX 10^−5 mM,−2.1 % change
same,Cardiac rate,[1]; DOX 10^−5 mM,203 Beats/min
same,Cor flow,[1]; DOX 10^−5 mM,14 mL/min
same,LV dp/dt max,[1]; DOX 10^−5 mM,1238 mmHg sec^−1
same,LV dpdt (relax),[1]; DOX 10^−5 mM,−1139 mmHg sec^−1
same,LV peak systolic pressure,[1]; DOX 10^−5 mM,94 mmHg
same,LVEDP,[1]; DOX 10^−5 mM,5 mmHg
same,MAP Duration,[1]; DOX 10^−5 mM,139 ms
same,QTcF,[1]; DOX 10^−5 mM,236 ms
same,LVEDP (effect in words),[1]; dexrazoxane added to the doxorubicin perfusion,did not contribute
same,QTcF increase by doxorubicin (effect in words),"[1]; dexrazoxane added, both doxorubicin doses",reversed
same,"Ca^2+ transients, Peak amplitude (ΔF/F0)",[2]; 10 μM,5.2 ± 0.8 ΔF/F0
same,"Ca^2+ transients, Peak amplitude (ΔF/F0)",[2]; 30 μM,5.8 ± 1.0 ΔF/F0
same,"Ca^2+ transients, Peak amplitude (ΔF/F0)",[2]; 100 μM,5.1 ± 0.6 ΔF/F0
same,calcium transients (effect in words),[2],dose proportional increase
same,APD50,[3]; 10 μM,512 ± 47 ms
same,APD90,[3]; 10 μM,573 ± 43 ms
same,"Action potentials, Peak amplitude",[3]; 10 μM,119 ± 2 mV
same,"Action potentials, Resting potential",[3]; 10 μM,−69 ± 0 mV
same,APD50,[3]; 30 μM,493 ± 36 ms
same,APD90,[3]; 30 μM,564 ± 33 ms
same,"Action potentials, Peak amplitude",[3]; 30 μM,121 ± 2 mV
same,"Action potentials, Resting potential",[3]; 30 μM,−68 ± 2 mV
same,APD50,[3]; 100 μM,548 ± 45 ms
same,APD90,[3]; 100 μM,619 ± 39 ms
same,"Action potentials, Peak amplitude",[3]; 100 μM,124 ± 1 mV
same,"Action potentials, Resting potential",[3]; 100 μM,−66 ± 1 mV
same,action potential duration (effect in words),[3],without inducing a change
same,solubility in 0.1 N HCl,"[6]; 0.1 N HCl at 25° C., salt of hydrochloric acid",35 mg/mL
same,solubility in 0.1 N HCl,[6]; 0.1 N HCl,sparingly soluble
same,solubility in water,[6]; 25° C.,about 10 mg/ml
same,"solubility in non-polar, organic solvents",[6],practically insoluble
same,solubility in polar solvents,[6],slightly soluble
same,stability of lyophilized drug without significant decomposition,[7],~12 months
same,amplitude of UCS / contraction (effect in words),[8]; 27 minutes,did not significantly alter
same,"peak amplitude of UCS, absolute cell shortening","[8]; 27 minutes, n=3, control 9.4±3.4 μm, P=ns",10.7±3.2 μm
same,UCS as percentage of resting cell length,"[8]; n=3, control 8.5±2.7% RCL, P=ns",8.0±2.0 % RCL
CC(CN1CC(=O)NC(=O)C1)N1CC(=O)NC(=O)C1 (racemic) [razoxane],solubility in 0.1 N HCl,[6]; 0.1 N HCl,sparingly soluble
same,"solubility in non-polar, organic solvents",[6],practically insoluble
same,solubility in polar solvents,[6],slightly soluble
